Reference: patent US5843887A, “Compositions for delivery of polypeptides, and methods” (Allied Medical Research Associates, priority 1994, dated 1998)

How the values were obtained:
[1] = pH of 8, in the presence of trypsin; cited from earlier work
[2] = tested on: serum glucose; experiment: IF and insulin injected into the sutured duodenal cavity of mice, serum glucose; assay type: in vivo; conditions: 50 mg IF and 4 I.U. insulin, decreases up until death, depending on the dose
Method: 10 g IF (dosage of 300 Units per mg; one unit will bind one nanogram of vitamin B12) was added to 1 liter of 0.02M phosphate buffered solution and stirred up to 37° C. […] The solution (with a prefered pH of about 6) was stirred at a temperature of 37° C. for 24 hours. The product was then dialysed at 4° C. and dehydrated by lyophilization.

[3] = doses of 100 to 500 μg, as in pernicious anemia; cited from earlier work
[4] = tested on: blood glucose level; experiment: oral administration of IF and/or porcine insulin to mice, blood glucose level; assay type: in vivo; conditions: administered orally (summary statement)
Method: The IF was substantially free of R-protein and prepared as in Example 1. […] Blood glucose level was measured with a blood glucose meter standard model Tracer (Boehringer) and produced the following results.

IF: glycoprotein with a molecular weight of 50 kDa, 351 amino acids, binds cobalamin
affinity for cobalamin relative to that of R protein [1]: 150 times

Insulin alone: human biogenetic insulin (Novo Nordisk) of Example 1, injected alone
change in serum glucose [2]: did not cause a fall in serum glucose

cyanocobalamin
fraction of dose absorbed (passive absorption) [3]: 1%

insulin
change in serum glucose after oral administration [4]: no change in serum glucose
